Measurements from patent US4659734A, “Olinecarboxylic acid derivatives” (Nippon Shinyaku Co., Ltd., priority 1983, dated 1987).

Key:
[1] = system: Acimetobacter calcoaceticus; assay: Mouse intraperitoneal infection, survival after one week; type: in vivo, ddY strain mice; conditions: po, 1 × 10^7 per mouse, one dose per os 2 h after infection
Protocol: (§1) ddY--Strain mice (male; body weight 20±1 grams) of SPF were innoculated with the bacteria set forth in Table 2 by administration of a supension of the bacterial in 4% mucin solution into the abdominal cavity. A compound of the invention was given one time per os two hours after the infection, and, from the survival rate after one week. 50% effective doses (ED50) were calculated by the Behrens-Karber method.

[2] = system: Escherichia coli KC-14; assay: as above; type: in vivo, ddY strain mice; conditions: KC14, po; Escherichia coli KC-14, 5 × 10^4 per mouse; one dose per os 2 h after infection
Protocol: as §1

[3] = system: Klebsiella pneumoniae K-1966; assay: as above; type: in vivo, ddY strain mice; conditions: K1966, po; Klebsiella pneumoniae K-1966, 3 × 10^3 per mouse; one dose per os 2 h after infection
Protocol: as §1

[4] = system: Proteus mirabilis 181; assay: as above; type: in vivo, ddY strain mice; conditions: po; Proteus mirabilis 181, 2 × 10^7 per mouse; one dose per os 2 h after infection
Protocol: as §1

[5] = system: Pseudomonas aeruginosa E-2; assay: as above; type: in vivo, ddY strain mice; conditions: E2, po; Pseudomonas aeruginosa E-2, 2 × 10^5 per mouse; one dose per os 2 h after infection; Behrens-Karber
Protocol: as §1

[6] = system: Serracia marcescens T-55; assay: as above; type: in vivo, ddY strain mice; conditions: po; Serracia marcescens T-55, 5 × 10^6 per mouse; one dose per os 2 h after infection
Protocol: as §1

[7] = system: Staphylococcus aureus Smith; assay: as above; type: in vivo, ddY strain mice; conditions: po, 3 × 10^6 per mouse, one dose per os 2 h after infection
Protocol: as §1

[8] = system: Pseudomonas aeruginosa E-2; assay: Ascending urinary tract infection; type: in vivo, ICR female mice
Protocol: ICR Female mice (body weight 20±1 grams) of SPE strain were used in the experiments. The mice were not given any water for seventeen hours, then compulsorily urinated, anesthesized by the administration of 60 mg/kg of pentobarbital into the abdominal cavity, then 1.5×10^5 of Pseudomonas aeruginosa E-2 strain were impregnated into the bladder via the urinary tract, and the external urinary meatus was stopped for four hours by a pin clip, whereupon the mice were infected in the ascending urinary tract.
The compound of Example 22b was given once orally, 4 hours after infection, then twice a day, and the administration was continued for three days. On the fourth day, the kidney was isolated, homogenized in a physiological saline solution, and the number of bacteria was calculated on suitable medium such as, for example, Drigalski medium. If the number of bacteria per one gram of kidney was less than […], then the compound was judged as "effective".

Cc1csc2c(C(=O)O)c(=O)c3cc(F)c(N4CCN(C)CC4)cc3n12 [Example 22b, 7-fluoro-1-methyl-8-(4-methyl-1-piperazinyl)-5-oxo-5H-thiazolo(3,2-a)-quinoline-4-carboxylic acid]
ED50 [1]: 17.5 mg/kg | ED50 [2]: 1.1 mg/kg | ED50 [3]: 2.7 mg/kg | ED50 [4]: 13 mg/kg | ED50 [5]: 13.1 mg/kg | ED50 [6]: 5.4 mg/kg | ED50 [7]: 2.4 mg/kg | Number Of Mice Where Compound Was Effective/Total Mice Tested ([8]; 3.13 mg/kg oral): 1/7 | Number Of Mice Where Compound Was Effective/Total Mice Tested ([8]; 6.25 mg/kg oral): 4/7 | Number Of Mice Where Compound Was Effective/Total Mice Tested ([8]; 12.5 mg/kg oral): 4/7 | Number Of Mice Where Compound Was Effective/Total Mice Tested ([8]; 25 mg/kg oral): 6/7 | Number Of Mice Where Compound Was Effective/Total Mice Tested ([8]; 50 mg/kg oral): 7/7 | Number Of Mice Where Compound Was Effective/Total Mice Tested ([8]; 100 mg/kg oral, 4 h after infection then twice a day, three days): 7/7 | ED50 ([8]; Pseudomonas aeruginosa, E2, in Mus musculus, 72 h, ascending urinary tract infection, oral, three days, read-out: 50% Effective Dose): 8 mg/kg
